Experimental data: the OPERA property sets (Mansouri et al. 2018)

Row | SMILES | melting point | boiling point | ready biodegradability | log10 vapour pressure (mmHg) | log10 Koa | log10 Henry constant (atm·m³/mol) | log10 Koc (L/kg)
1 | Cc1cc(NS(=O)(=O)c2ccc(N)cc2)n(-c2ccccc2)n1 | 195 °C | – | – | – | – | – | –
2 | FC1CCCCC1 | 13 °C | 101 °C | – | – | – | – | –
3 | CCN(CC)C(=O)N(CC)CC | – | 209 °C | – | – | – | – | –
4 | CC1CCS1 (stereo not drawn) | – | 107 °C | – | – | – | – | –
5 | CC(CN1C(=O)c2cccnc2Nc2ccccc21)N(C)C (stereo not drawn) | 122 °C | – | – | – | – | – | –
6 | CCCCOS(=O)OCCCC | – | 230 °C | – | – | – | – | –
7 | Cc1c(Cl)cc(Cl)c(O)c1Cl | 46 °C | 265 °C | – | – | – | – | –
8 | CCCCCCCCCCCCCCCC(C)O (stereo not drawn) | 54 °C | – | – | – | – | – | –
9 | CC(=O)NC12CC3CC(CC(C3)C1)C2 | 148 °C | – | – | – | – | – | –
10 | Cc1ccc(Cl)cc1O | – | – | not readily biodegradable | – | – | – | –
11 | C/C=C\C(=O)OC1C[C@H]2O[C@@H]3C=C(C)C(=O)C[C@]3(C)[C@]1(C)C21CO1 (stereo partly drawn) | 118 °C | – | – | – | – | – | –
12 | COC(=O)c1cc(Cl)ccc1N | 67 °C | – | – | – | – | – | –
13 | CCCCCCCCCOCCCCCCCCC | – | – | – | -4.28 | – | – | –
14 | O=C1CCCCCCCN1 | 78 °C | – | – | – | – | – | –
15 | ClC(Br)C(Cl)Br (stereo not drawn) | -26 °C | 195 °C | – | – | – | – | –
16 | Nc1ccc(C(=O)NCC(=O)O)cc1 | 198 °C | – | – | – | – | – | –
17 | CN(C)CCCO | – | 164 °C | – | – | – | – | –
18 | COc1cc(CCCO)ccc1O | 65 °C | – | – | – | – | – | –
19 | CNC(=O)n1cc(F)c(=O)[nH]c1=O | 226 °C | – | – | – | – | – | –
20 | C[C@]12CC[C@@H]3c4ccc(OC5CCCC5)cc4CC[C@H]3[C@@H]1C[C@@H](O)[C@@H]2O | 99 °C | – | – | – | – | – | –
21 | C[Si](C)(C)Oc1ccccc1 | -55 °C | 119 °C | – | – | – | – | –
22 | CC(=O)Oc1ccccc1OC(C)=O | 64.5 °C | – | – | – | – | – | –
23 | CC(Cc1ccc(C(C)(C)C)cc1)CN1CCCCC1 (stereo not drawn) | – | – | – | -3.89 | – | – | –

Row | SMILES | melting point | boiling point | ready biodegradability | log10 vapour pressure (mmHg) | log10 Koa | log10 Henry constant (atm·m³/mol) | log10 Koc (L/kg)
24 | CC(C)C(Br)C(=O)NC(N)=O (stereo not drawn) | 154 °C | – | – | – | – | – | –
25 | N#Cc1ccccc1 | -12.7 °C | 191 °C | readily biodegradable | -0.115 | 4.46 | – | –
26 | CCC(O)CC | – | 116 °C | – | 0.943 | – | – | –
27 | CC[C@H]1CN2CC[C@]3(C(=O)Nc4ccccc43)[C@@H]2C[C@@H]1/C(=C\OC)C(=O)OC | 216 °C | – | – | – | – | – | –
28 | O=[N+]([O-])c1ccc(Sc2ccc([N+](=O)[O-])cc2)cc1 | 160 °C | – | – | – | – | – | –
29 | O=Cc1ccoc1 | – | 145 °C | – | – | – | – | –
30 | Nc1c([N+](=O)[O-])cc(Cl)cc1[N+](=O)[O-] | 147 °C | – | – | – | – | – | –
31 | COc1cc(Cl)c(Cl)c(Cl)c1OC | 66 °C | – | – | – | – | – | –
32 | CCCCC(C)C(C)(C)C (stereo not drawn) | – | 158 °C | – | – | – | – | –
33 | CCOC(=O)CCCCCC(=O)O | 10 °C | – | – | – | – | – | –
34 | CCCCCCCCCCCCCCCCCCCCCCCCCCCCCCCCCCCCCCCCCCCC | 87.5 °C | 548 °C | readily biodegradable | – | – | – | –
35 | Nc1ccc(Cc2ccc(N)c(Cl)c2Cl)c(Cl)c1Cl | – | – | not readily biodegradable | – | – | – | –
36 | COc1cc(OC)nc(N=C(O)NS(=O)(=O)N(C)S(C)(=O)=O)n1 | 162 °C | – | – | -6.78 | – | – | –
37 | COc1ccccc1Oc1ccccc1 | 79 °C | 288 °C | – | – | – | – | –
38 | O=C1c2ccccc2C(=O)c2cc(Br)ccc21 | 206 °C | – | – | – | – | – | –
39 | Cc1ccc(CC#N)cc1 | 18 °C | 242 °C | – | – | – | – | –
40 | COCC(=O)OC | – | 131 °C | – | – | – | – | –
41 | CCOc1cccc(N(CC)CC)c1 | – | 286 °C | – | – | – | – | –
42 | C#CC(C)Cl (stereo not drawn) | – | 68.5 °C | – | – | – | – | –
43 | CC(C)CC(C)(C)C(C)C | – | 153 °C | – | – | – | – | –
44 | CCOC(=O)c1ccco1 | 34.5 °C | 197 °C | – | -0.432 | – | – | –
45 | O=C1CC(=O)NC(=S)N1 | – | – | – | -7.7 | – | – | –
46 | O=Cc1ccc(Cl)cc1Cl | 72 °C | 233 °C | – | – | – | – | –

Row | SMILES | melting point | boiling point | ready biodegradability | log10 vapour pressure (mmHg) | log10 Koa | log10 Henry constant (atm·m³/mol) | log10 Koc (L/kg)
47 | Clc1cc2ccccc2c(Cl)c1Cl | – | – | – | -4.7 | 7.66 | – | –
48 | Cc1cc(Br)ccc1O | 64.7 °C | 235 °C | – | – | – | – | –
49 | O=[N+]([O-])c1ccc2c(c1)oc1ccccc12 | 182 °C | – | – | – | – | – | –
50 | Cc1[nH]ncc1Br | 76.5 °C | – | – | – | – | – | –
51 | Nc1ccc(Sc2ccc([N+](=O)[O-])cc2)cc1 | 144 °C | – | – | – | – | – | –
52 | Cc1cn([C@H]2CC[C@@H](CO)O2)c(=O)[nH]c1=O | 156 °C | – | – | – | – | – | –
53 | C/C=C/C=O | -76.2 °C | 103 °C | – | 1.48 | – | -4.84 | –
54 | FC(F)(F)C(F)(Cl)Cl | -56.6 °C | 4 °C | – | 3.21 | – | – | –
55 | O=C(O)c1cccc(C(=O)O)n1 | – | – | readily biodegradable | – | – | – | –
56 | C=C(C)C(=O)OCCN(C)C | -30 °C | 186 °C | – | – | – | – | –
57 | O=CNNC=O | 156 °C | – | – | -6.13 | – | – | –
58 | Cc1ccc(N)cc1F | 31 °C | – | – | – | – | – | –
59 | Nc1ccccc1S(=O)(=O)O | – | – | not readily biodegradable | – | – | – | –
60 | O=C(c1ccccc1)C(O)c1ccccc1 (stereo not drawn) | – | – | readily biodegradable | – | – | – | –
61 | O=C(O)c1ccncc1C(=O)O | 256 °C | – | – | – | – | – | –
62 | CC(c1ccccc1)c1ccccc1 | -17.9 °C | 273 °C | – | -1.85 | – | – | –
63 | CCCC(=O)c1ccccc1O | 10 °C | – | – | – | – | – | –
64 | O=[N+]([O-])c1ccc(O[C@@H]2O[C@H](CO)[C@H](O)[C@H](O)[C@H]2O)cc1 | 189 °C | – | – | – | – | – | –
65 | Clc1cc(Cl)c(Cl)c(-c2c(Cl)c(Cl)cc(Cl)c2Cl)c1Cl | – | – | – | – | – | -4.74 | 6.36
66 | CCc1cccc(CC)c1N | 3.5 °C | 236 °C | – | -2.42 | – | – | –
67 | C1CNCCN1 | – | 146 °C | not readily biodegradable | -0.796 | – | – | –
68 | CC1c2ccccc2-c2ccccc21 | 46.5 °C | – | – | – | – | – | –
69 | CCCCN | -50 °C | 78 °C | readily biodegradable | 1.97 | 3.61 | -4.76 | 1.88
